Results as given in patent publication EP4470536A1, “COMPOUND FOR USE IN TREATING FIBRODYSPLASIA OSSIFICANS PROGRESSIVA (FOP)” (Queen's University At Kingston, priority 2023, dated 2024).
pIC50: −log10 of the molar value.

Tests used:
[1] = molecular target: T1, CYP26A1 (Homo sapiens, UniProt O43174); experiment: HeLa cell-based inhibitor assay (HeLa-CYP26A1), inhibition of all trans-RA metabolism; settings: CYP26A1 cells, highest concentration tested (10 µM), Figure 2, read-out: percentage inhibition
T1 construct: expressed in transfected cells; host or cells: HeLa (stably transfected, hygromycin selection)
T1 sequence (O43174 1-497): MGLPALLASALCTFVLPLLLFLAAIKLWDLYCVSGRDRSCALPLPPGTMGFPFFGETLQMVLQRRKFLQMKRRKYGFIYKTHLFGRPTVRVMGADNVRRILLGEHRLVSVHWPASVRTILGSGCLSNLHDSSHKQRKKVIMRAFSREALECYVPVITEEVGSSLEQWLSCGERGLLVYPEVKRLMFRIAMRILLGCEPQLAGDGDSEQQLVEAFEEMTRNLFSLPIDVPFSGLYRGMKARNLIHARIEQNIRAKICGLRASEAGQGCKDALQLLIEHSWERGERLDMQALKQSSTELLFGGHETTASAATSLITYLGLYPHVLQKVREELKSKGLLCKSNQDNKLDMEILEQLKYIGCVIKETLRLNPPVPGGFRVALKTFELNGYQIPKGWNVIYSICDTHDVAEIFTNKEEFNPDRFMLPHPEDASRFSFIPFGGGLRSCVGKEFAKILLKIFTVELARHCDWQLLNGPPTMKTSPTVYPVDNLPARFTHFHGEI
Description: CYP26A1 or CYP26B1 cDNA stably transfected HeLa cells were maintained in Minimum Essential Medium (MEM) containing 10% fetal bovine serum (FBS), 1X antibiotic/antimycotic cocktail, and […] hygromycin. Exponentially growing cells were harvested by incubation in trypsin. Cells were then collected and re-plated in 48-well culture plates at 1.5×10^5 (CYP26A1) or 1.5×10^4 (CYP26B1) cells in 0.2 mL of culture medium containing 0.04µCi [^3H]-RA (retinoic acid) in the presence or absence of increasing concentrations of a test compound. The test compound was diluted in dimethyl sulfoxide (DMSO) and then added in duplicate to wells to 0.01 nM, 0.1 nM, 1 nM, 10 nM, 100 nM, 1 µM, and 10 µM final concentrations. Cells were incubated for 3 hours at 37 °C. Retinoids were then extracted using the procedure of Bligh, et al., (1959), Canadian Journal of Biochemistry 37, 911-917, which was modified by using dichloromethane instead of chloroform. Each sample's water-soluble radioactivity level was quantified using a β-scintillation counter (using Ecolume scintillation fluid, available from MP Biomedicals of Solon, OH, USA). IC50 values represented the concentration of inhibitor required to inhibit all trans-RA metabolism by 50%, and were derived from log transformed data.

[2] = molecular target: T2, CYP26B1 (Homo sapiens, UniProt Q9NR63); experiment: Microsome-based inhibitor assay (microsomes from CYP26B1-transfected HeLa cells); format: biochemical; settings: 5µg microsomal fraction, 1mM NADPH, 1 hour at 37°C; Figure 3
T2 sequence (Q9NR63 1-512): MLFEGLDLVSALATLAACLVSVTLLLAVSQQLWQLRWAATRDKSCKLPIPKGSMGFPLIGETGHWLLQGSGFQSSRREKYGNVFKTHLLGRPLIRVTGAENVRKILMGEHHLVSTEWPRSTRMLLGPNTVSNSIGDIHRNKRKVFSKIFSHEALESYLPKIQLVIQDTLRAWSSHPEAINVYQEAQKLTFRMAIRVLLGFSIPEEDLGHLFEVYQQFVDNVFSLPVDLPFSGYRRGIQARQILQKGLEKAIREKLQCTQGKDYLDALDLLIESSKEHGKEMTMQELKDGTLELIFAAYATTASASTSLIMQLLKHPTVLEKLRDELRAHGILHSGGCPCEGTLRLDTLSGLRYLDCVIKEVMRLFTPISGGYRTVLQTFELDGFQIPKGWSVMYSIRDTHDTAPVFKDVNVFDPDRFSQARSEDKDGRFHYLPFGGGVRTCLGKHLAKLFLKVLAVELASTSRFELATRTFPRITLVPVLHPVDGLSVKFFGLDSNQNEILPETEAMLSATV
Description: This assay used cell-free microsomes to measure the ability of a test compound to inhibit the metabolism of RA. Microsomal fractions were obtained from CYP26B1 cDNA stably transfected HeLa cells by differential centrifugation of cell lysates. Assays were carried out in 48-well plates containing 5µg of microsomal fraction in Microsome Assay Buffer, containing 0.04µCi [^3H]-RA in the presence of increasing concentrations of a test compound, as described above for the HeLa cell-based assay. Reactions were initiated by addition of 1mM NADPH, and carried out for 1 hour at 37°C. Reactions were stopped, retinoids extracted, and data were collected and analyzed as described above for the HeLa cell-based assay.

[3] = tested on: growth plates of juvenile FVB mice; experiment: Long bone growth and growth plate toxicity in juvenile mice; settings: for Mean femur length (cm) / Mean tibia length (cm): oral gavage, P14-P41, juvenile FVB mice; for Mean modified Crural index: ratio of tibia over femur length
Description: A preclinical study was used to evaluate toxicity of various doses of compound 1 versus palovarotene on the growth plates of juvenile FVB mice following once daily (QD) or twice (BID) administration by oral gavage, over the juvenile development period, for 4 weeks (postnatal days 14-42 (P14-P42)). […] Resultant DICOM files were rendered in the RadiAnt viewer to obtain long bone measurements using the program's measuring tool (Figure 8A).

## CC(C)(C)c1cccc(-c2cc3cc(/C=C/C(=O)O)ccc3[nH]2)c1 [Compound 1, (E)-3-(2-(3-(tert-butyl)phenyl)-1H-indol-5-yl)acrylic acid]
[1]
  inhibition at 10 µM: 33%
[2]
  pIC50: 8.23
[3]; 3mg/kg BID
  Mean femur length (cm): 1.38 ± 0.03 cm
  Mean tibia length (cm): 1.69 ± 0.04 cm
  Mean modified Crural index: 1.23 ± 0.03
[3]; 6mg/kg BID
  Mean femur length (cm): 1.33 ± 0.11 cm
  Mean tibia length (cm): 1.53 ± 0.05 cm
  Mean modified Crural index: 1.15 ± 0.05
[3]; 10mg/kg BID
  Mean femur length (cm): 1.34 ± 0.06 cm
  Mean tibia length (cm): 1.70 ± 0.04 cm
  Mean modified Crural index: 1.27 ± 0.06
[3]; 18mg/kg QD
  Mean femur length (cm): 1.10 ± 0.09 cm
  Mean tibia length (cm): 1.54 ± 0.07 cm
  Mean modified Crural index: 1.40 ± 0.06
[3]; at doses at least equally efficacious as palovarotene, Figures 8A, 8B, 9
  disturbances to the growth of long bones and microarchitecture of the growth plates: not observed
